In US20250049036A1 (priority 2021, published 2025):

Assays:
[1] = tested on: Botrytis cinerea; test: Botrytis cinerea liq. (BOTRCI) spore growth inhibition in liquid medium, 96-well microtiter plate, OD 405 nm; format: cell-based; conditions: spore suspension in YBA liquid medium, 22° C., 5-6 days, OD at 405 nm, read-out: control compared to the untreated check
Description: Yeast bacterial peptone and sodium acetate (YBA) liquid medium containing a BOTRCI (10^4 spores/ml) spore suspension was prepared. For the inhibition assay, each test compound was solved in dimethyl sulfoxide. 100 μl of the test compound in media-solution was added to a 96-well microtiter plate, consequently, the same volume (100 μl) of spore suspension was added to the well making the final test concentrations and the plate was incubated at 22° C. for 5-6 days. The growth inhibition was evaluated by measuring the OD at 405 nm. Percent inhibition was calculated with the below formula:
Where T=treatment, C=control, and B=blank

[2] = tested on: Phytophthora infestans; test: microbe, parasite or virus in culture; format: cell-based; conditions: 168 h, read-out: control compared to the untreated check
[3] = tested on: Botrytis cinerea; test: Botrytis cinerea (gray mold) mycelial radial growth on potato dextrose agar; format: cell-based; conditions: 168 h, 22° C., seven days, read-out: control compared to the untreated check
Description: (§1) The compounds were dissolved in 0.3% dimethyl sulfoxide and then added to potato dextrose agar medium just prior to dispensing it into petri dishes. 5 mL medium, with the compound in the desired concentration, was dispensed into 60 mm sterile petri-plates. After solidification, each plate was seeded with a 5 mm size mycelial disc taken from the periphery of an actively growing virulent culture plate. The plates were incubated in growth chambers at 22° C. temperature and 90% relative humidity for seven days and the radial growth was measured and compared to the one of the untreated control.

[4] = tested on: Phakopsora pachyrhizi; test: Phakopsora pachyrhizi test on soybean, preventive, greenhouse; format: in vivo; conditions: preventive spray on soybean, inoculated one day after treatment, read-out: control (efficacy, disease severity) compared to the untreated check
In short: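 Greenhouse-grown young soybean plants were sprayed with compound (2% DMSO/acetone, emulsifier in water) at the stated rate. One day later they were inoculated with 2×10^5 P. pachyrhizi inoculum and held at 22-24 °C, 80-90% relative humidity for disease development.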

[5] = tested on: Parastagonospora nodorum; test: Parastagonospora nodorum (PARANO) spore growth inhibition in liquid medium, 96-well microtiter plate, OD 600; format: cell-based; conditions: spore suspension in PDB liquid medium, 18° C., 5-6 days, OD at 600, read-out: control compared to the untreated check
In short: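 Read-out is percent growth inhibition from OD at 600 after 5-6 days at 18° C. Compounds, dissolved in DMSO, were diluted in potato dextrose broth and combined in equal volume with a 10^5 spores/ml suspension of PARANO.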

[6] = tested on: Botrytis cinerea; test: Botrytis cinerea test on tomato, preventive, greenhouse; format: in vivo; conditions: preventive spray on bean/chili plants (heading: tomato), inoculated one day after treatment, read-out: control (efficacy, disease severity) compared to the untreated check
[7] = tested on: Colletotrichum capsici; test: Colletotrichum capsici (anthracnose) mycelial radial growth on potato dextrose agar; format: cell-based; conditions: Colletotrichum truncatum, 168 h, 25° C., seven days, read-out: control compared to the untreated check
Description: as §1, with “25°” for “22°”, “60%” for “90%”

[8] = tested on: Pyricularia oryzae; test: microbe, parasite or virus in culture; format: cell-based; conditions: 168 h, read-out: control compared to the untreated check

CC(C)(COc1ccccn1)NC(=O)c1cnc2c(c1)CCC2 [Compound 202, N-(2-methyl-1-(pyridin-2-yloxy)propan-2-yl)-6,7-dihydro-5H-cyclopenta[b]pyridine-3-carboxamide]
≥ 70%: inhibition of growth at 300 ppm [1] | inhibition of growth at 300 ppm [2]

COc1nc2[nH]ccc2cc1C(=O)NC(C)(Cc1ccccc1)CC(C)C (stereo not drawn) [Compound 89, N-(2,4-dimethyl-1-phenylpentan-2-yl)-6-methoxy-1H-pyrrolo[2,3-b]pyridine-5-carboxamide]
≥ 70%: inhibition of growth at 300 ppm [3] | inhibition of growth at 300 ppm [1] | pest or weed control at 500 ppm [4]

CC(C)(COC(=O)c1ccccc1C(F)(F)F)NC(=O)c1cnc2c(c1)CCC2 [Compound 148, 2-(6,7-dihydro-5H-cyclopenta[b]pyridine-3-carboxamido)-2-methylpropyl 2-(trifluoromethyl)benzoate]
≥ 70%: inhibition of growth at 300 ppm [3] | inhibition of growth at 300 ppm [1]

Cc1cccc(CC(C)(C)NC(=O)c2cnc3c(ccn3C)c2)c1 [Compound 27, 1-methyl-N-(2-methyl-1-(m-tolyl)propan-2-yl)-1H-pyrrolo[2,3-b] pyridine-5-carboxamide]
≥ 70%: inhibition of growth at 300 ppm [2] | inhibition of growth at 300 ppm [5]

CC(C)(Cc1ccccc1)NC(=O)c1cnc2cc[nH]c2c1 [Compound 95, N-(2-methyl-1-phenylpropan-2-yl)-1H-pyrrolo[3,2-b] pyridine-6-carboxamide]
≥ 70%: inhibition of growth at 300 ppm [2] | pest or weed control at 500 ppm [4] | inhibition of growth at 300 ppm [5] | pest or weed control at 500 ppm [6]

Cc1ccccc1C(=O)OCC(C)(C)NC(=O)c1cnc2c(c1)CCC2 [Compound 149, 2-(6,7-dihydro-5H-cyclopenta[b]pyridine-3-carboxamido)-2-methylpropyl 2-methylbenzoate]
≥ 70%: inhibition of growth at 300 ppm [3] | inhibition of growth at 300 ppm [1] | inhibition of growth at 300 ppm [5]

CC(C)(COc1ccc(C#N)cn1)NC(=O)c1cnc2c(c1)CCC2 [Compound 223, N-(1-((5-cyanopyridin-2-yl)oxy)-2-methylpropan-2-yl)-6,7-dihydro-5H-cyclopenta[b]pyridine-3-carboxamide]
≥ 70%: inhibition of growth at 300 ppm [1] | inhibition of growth at 300 ppm [2] | inhibition of growth at 300 ppm [5]

Cn1ccc2ncc(C(=O)NC(C)(C)Cc3ccccc3)cc21 [Compound 86, 1-methyl-N-(2-methyl-1-phenylpropan-2-yl)-1H-pyrrolo[3,2-b] pyridine-6-carboxamide]
≥ 70%: inhibition of growth at 300 ppm [2] | pest or weed control at 500 ppm [4] | inhibition of growth at 300 ppm [5] | pest or weed control at 500 ppm [6]

C=C(C)CC(C)(COc1ccccc1F)NC(=O)c1cnc2ccsc2c1 (stereo not drawn) [Compound 159, N-(1-(2-fluorophenoxy)-2,4-dimethylpent-4-en-2-yl)thieno[3,2-b] pyridine-6-carboxamide]
≥ 70%: inhibition of growth at 300 ppm [3] | inhibition of growth at 300 ppm [5]

CN1CCOc2cc(C(=O)NC(C)(C)Cc3ccccc3)cnc21 [Compound 82, 4-methyl-N-(2-methyl-1-phenylpropan-2-yl)-3,4-dihydro-2H-pyrido[3,2-b] [1,4]oxazine-7-carboxamide]
≥ 70%: inhibition of growth at 300 ppm [3] | inhibition of growth at 300 ppm [1] | inhibition of growth at 300 ppm [5]

CC(C)CC(C)(Cc1ccccc1)NC(=O)c1cnc2c(c1)c(C1CC1)cn2C (stereo not drawn) [Compound 55, 3-cyclopropyl-N-(2,4-dimethyl-1-phenylpentan-2-yl)-1-methyl-1H-pyrrolo[2,3-b]pyridine-5-carboxamide]
≥ 70%: inhibition of growth at 300 ppm [3] | inhibition of growth at 300 ppm [1] | pest or weed control at 500 ppm [6]

CC(C)(C#N)NC(=O)c1cnc2ccsc2c1 [Compound 106, N-(2-cyanopropan-2-yl)thieno[3,2-b] pyridine-6-carboxamide]
≥ 70%: inhibition of growth at 300 ppm [3] | inhibition of growth at 300 ppm [1] | pest or weed control at 500 ppm [4] | inhibition of growth at 300 ppm [5] | pest or weed control at 500 ppm [6]

C=C(C)CC(C)(COc1ccccc1F)NC(=O)c1cnc2cc[nH]c2c1 (stereo not drawn) [Compound 175, N-(1-(2-fluorophenoxy)-2,4-dimethylpent-4-en-2-yl)-1H-pyrrolo[3,2-b] pyridine-6-carboxamide]
≥ 70%: inhibition of growth at 300 ppm [2] | inhibition of growth at 300 ppm [7] | inhibition of growth at 300 ppm [5]

Cn1ccc2cc(C(=O)NC3(C)Cc4ccccc4C3)cnc21 [Compound 78, 1-methyl-N-(2-methyl-2,3-dihydro-1H-inden-2-yl)-1H-pyrrolo[2,3-b] pyridine-5-carboxamide]
≥ 70%: inhibition of growth at 300 ppm [3] | inhibition of growth at 300 ppm [1] | inhibition of growth at 300 ppm [5]

CC(C)(COCc1ccccc1F)NC(=O)c1cnc2ccsc2c1 [Compound 189]
≥ 70%: inhibition of growth at 300 ppm [3] | inhibition of growth at 300 ppm [1] | inhibition of growth at 300 ppm [8]

COc1nc2c(cc1C(=O)NC(C)CCc1ccccc1)CCC2 (stereo not drawn) [Compound 249, 2-methoxy-N-(4-phenylbutan-2-yl)-6,7-dihydro-5H-cyclopenta[b]pyridine-3-carboxamide]
≥ 70%: inhibition of growth at 300 ppm [2] | inhibition of growth at 300 ppm [5]

CON(C(=O)c1cc2c(nc1Cl)CCC2)C(C)Cc1ccccc1F (stereo not drawn) [Compound 254, 2-chloro-N-(1-(2-fluorophenyl)propan-2-yl)-N-methoxy-6,7-dihydro-5H-cyclopenta[b]pyridine-3-carboxamide]
≥ 70%: inhibition of growth at 300 ppm [3] | inhibition of growth at 300 ppm [1] | inhibition of growth at 300 ppm [8] | inhibition of growth at 300 ppm [5]

Cn1ccc2cc(C(=O)NC(C)(C)COc3ccc(F)cn3)cnc21 [Compound 230, N-(1-((5-fluoropyridin-2-yl)oxy)-2-methylpropan-2-yl)-1-methyl-1H-pyrrolo[2,3-b]pyridine-5-carboxamide]
≥ 70%: inhibition of growth at 300 ppm [1] | inhibition of growth at 300 ppm [2] | inhibition of growth at 300 ppm [7] | inhibition of growth at 300 ppm [5]

O=C(NC1(Cc2ccccc2)CC1)c1cc2c(nc1Cl)CCC2 [Compound 246, N-(1-benzylcyclopropyl)-2-chloro-6,7-dihydro-5H-cyclopenta[b]pyridine-3-carboxamide]
≥ 70%: inhibition of growth at 300 ppm [2]

Cn1cc(Br)c2cc(C(=O)NC(C)(C)COCc3ccccc3F)cnc21 [Compound 194, 3-bromo-N-(1-((2-fluorobenzyl)oxy)-2-methylpropan-2-yl)-1-methyl-1H-pyrrolo[2,3-b]pyridine-5-carboxamide]
≥ 70%: inhibition of growth at 300 ppm [3] | inhibition of growth at 300 ppm [1]

CC(C)(COCc1ccccc1F)NC(=O)c1cnc2c(c1)CCC2 [Compound 190, N-(1-((2-fluorobenzyl)oxy)-2-methylpropan-2-yl)-6,7-dihydro-5H-cyclopenta[b]pyridine-3-carboxamide]
≥ 70%: inhibition of growth at 300 ppm [3] | inhibition of growth at 300 ppm [1] | inhibition of growth at 300 ppm [7] | inhibition of growth at 300 ppm [5]

Cn1ccc2cc(C(=O)NC(C)(C)COCc3ccccc3F)cnc21 [Compound 187, N-(1-((2-fluorobenzyl)oxy)-2-methylpropan-2-yl)-1-methyl-1H-pyrrolo[2,3-b]pyridine-5-carboxamide]
≥ 70%: inhibition of growth at 300 ppm [3] | inhibition of growth at 300 ppm [1] | inhibition of growth at 300 ppm [7] | inhibition of growth at 300 ppm [5]

COc1cc(C(O)C(C)(C)NC(=O)c2cnc3ccsc3c2)ccc1F (stereo not drawn) [Compound 119, N-(1-(4-fluoro-3-methoxyphenyl)-1-hydroxy-2-methylpropan-2-yl)thieno[3,2-b] pyridine-6-carboxamide]
≥ 70%: inhibition of growth at 300 ppm [2] | inhibition of growth at 300 ppm [8] | pest or weed control at 500 ppm [4] | inhibition of growth at 300 ppm [5]

COc1ccccc1CC(C)(C)NC(=O)c1cnc2c(c1)c(F)cn2C [Compound 72, 3-fluoro-N-(1-(2-methoxyphenyl)-2-methylpropan-2-yl)-1-methyl-1H-pyrrolo[2,3-b]pyridine-5-carboxamide]
≥ 70%: inhibition of growth at 300 ppm [3] | inhibition of growth at 300 ppm [1]
